{"source": "patent US5075307A", "about": "“Paraherquamide and dihydroparaherquamide as antihelminthic agents” (Merck & Co., Inc., priority 1987, dated 1991)", "key": {"[1]": {"assay": "Solubility", "format": "physicochemical"}, "[2]": {"tested_on": "Dermacentor albipictus larvae", "assay": "Tick larvae immersion test", "details": "same suspension of crude extract as Example 13, 2 ml whole broth equivalent, immersed 10 minutes", "method": "The same suspension used in Example 13 was used at a concentration of 2 ml whole broth equivalent to screen for activity against tick larvae. For this test Dermacentor albipictus larvae were immersed in 2 ml whole broth equivalent Paraherquamide for 10 minutes. The liquid was then removed with vacuum retaining the ticks on drug-impregnated filter paper."}, "[3]": {"tested_on": "Trichostrongylus axei", "assay": "Anthelmintic activity, single oral dose in experimentally infected sheep: residual worm burden vs untreated control", "format": "in vivo", "details": "8 days after treatment", "method": "(§1) Four \"Parasite-free\" sheep were exposed to infection with infective L3 of H. contortus, O. circumcincta, T. axei, T. colubriformis, C. curticei, C. oncophora, and Oe. columbianum. Twenty-four days after the last oral dose of infective larvae, when the infections were patent, three of the sheep were randomly assigned to treatment with either 6, 3 or 1 mg/kg body weight of paraherquamide as a single oral dose. The fourth sheep was maintained as an untreated control. All treatments were administered as solutions at a volume of 0.2 ml/kg P.O.: 6 mg/kg as a solution containing 30 mg/ml; 3 mg/kg as a solution containing 15 mg/ml; 1 mg/kg as a solution containing 5 mg/ml. The vehicle used was a mixture of dimethylsulfoxide: propylene glycol:miglyol (1.5:5:3.5).\n(§2) Eight days following treatment the treated and control sheep were sacrificed and their residual worm burdens were recovered and identified using standard procedures. The worm burdens of the treated sheep were compared with that of the untreated control and the evaluations are tabulated as Table 1."}, "[4]": {"tested_on": "Cooperia spp.", "assay": "Anthelmintic activity, single oral dose in experimentally infected sheep: residual worm burden vs untreated control", "format": "in vivo", "details": "8 days after treatment", "method": "as §1, §2"}, "[5]": {"tested_on": "Oesophagostomum columbianum", "assay": "Anthelmintic activity, single oral dose in experimentally infected sheep: residual worm burden vs untreated control", "format": "in vivo", "details": "8 days after treatment, control worm burden 7", "method": "as §1, §2"}, "[6]": {"tested_on": "Ostertagia circumcincta", "assay": "Anthelmintic activity, single oral dose in experimentally infected sheep: residual worm burden vs untreated control", "format": "in vivo", "details": "8 days after treatment; for Efficacy, Ostertagia circumcincta L4: L4 stage; for Efficacy, Ostertagia circumcincta, Adult: adult stage", "method": "as §1, §2"}, "[7]": {"tested_on": "Cooperia oncophora", "assay": "Anthelmintic activity, single oral dose in experimentally infected sheep: residual worm burden vs untreated control", "format": "in vivo", "details": "8 days after treatment", "method": "as §1, §2"}, "[8]": {"tested_on": "Trichostrongylus colubriformis (benzimidazole resistant isolate)", "assay": "Anthelmintic activity, single oral dose in experimentally infected sheep: residual worm burden vs untreated control", "format": "in vivo", "details": "8 days after treatment", "method": "as §1, §2"}, "[9]": {"tested_on": "Cooperia curticei", "assay": "Anthelmintic activity, single oral dose in experimentally infected sheep: residual worm burden vs untreated control", "format": "in vivo", "details": "8 days after treatment", "method": "as §1, §2"}, "[10]": {"tested_on": "Haemonchus contortus (benzimidazole resistant isolate)", "assay": "Anthelmintic activity, single oral dose in experimentally infected sheep: residual worm burden vs untreated control", "format": "in vivo", "details": "8 days after treatment", "method": "as §1, §2"}, "[11]": {"tested_on": "H. contortus, O. circumcincta, T. axei, T. colubriformis, C. curticei, C. oncophora, and Oe. columbianum", "assay": "Fecal worm egg counts of treated infected sheep", "format": "in vivo", "details": "3 treated sheep (6, 3 or 1 mg/kg P.O. single dose), four days following treatment, from 4,000-20,000 EPG", "method": "as §1"}}, "data": [{"smiles": "CN1C(=O)C23CC4C1(CN2CCC3(C)O)CC1(C(=O)Nc2c1ccc1c2OC=CC(C)(C)O1)C4(C)C", "note": "(stereo not shown) [Paraherquamide]", "values": [{"measurement": "solubility in organic solvents", "setting": "[1]; organic solvents", "value": "soluble"}, {"measurement": "solubility in water", "setting": "[1]; water", "value": "slight solubility"}, {"measurement": "activity against tick larvae", "setting": "[2]", "value": "rapidly and completely active"}, {"measurement": "Efficacy, Trichostrongylus axei", "setting": "[3]; 1.0 mg/kg P.O. single dose", "value": "3 (≥91% effective)"}, {"measurement": "Efficacy, Trichostrongylus axei", "setting": "[3]; 3.0 mg/kg P.O. single dose", "value": "3 (≥91% effective)"}, {"measurement": "Efficacy, Trichostrongylus axei", "setting": "[3]; 6.0 mg/kg P.O. single dose", "value": "3 (≥91% effective)"}, {"measurement": "Efficacy, Cooperia spp.", "setting": "[4]; 1.0 mg/kg P.O. single dose", "value": "3 (≥91% effective)"}, {"measurement": "Efficacy, Cooperia spp.", "setting": "[4]; 3.0 mg/kg P.O. single dose", "value": "3 (≥91% effective)"}, {"measurement": "Efficacy, Cooperia spp.", "setting": "[4]; 6.0 mg/kg P.O. single dose", "value": "3 (≥91% effective)"}, {"measurement": "Efficacy, Oesophagostomum columbianum", "setting": "[5]; 1.0 mg/kg P.O. single dose", "value": "0 (0-50% effective)"}, {"measurement": "Efficacy, Oesophagostomum columbianum", "setting": "[5]; 3.0 mg/kg P.O. single dose", "value": "3 (≥91% effective)"}, {"measurement": "Efficacy, Oesophagostomum columbianum", "setting": "[5]; 6.0 mg/kg P.O. single dose", "value": "3 (≥91% effective)"}, {"measurement": "Efficacy, Ostertagia circumcincta L4", "setting": "[6]; 1.0 mg/kg P.O. single dose", "value": "2 (76-90% effective)"}, {"measurement": "Efficacy, Ostertagia circumcincta L4", "setting": "[6]; 3.0 mg/kg P.O. single dose", "value": "3 (≥91% effective)"}, {"measurement": "Efficacy, Ostertagia circumcincta L4", "setting": "[6]; 6.0 mg/kg P.O. single dose", "value": "3 (≥91% effective)"}, {"measurement": "Efficacy, Ostertagia circumcincta, Adult", "setting": "[6]; 1.0 mg/kg P.O. single dose", "value": "3 (≥91% effective)"}, {"measurement": "Efficacy, Ostertagia circumcincta, Adult", "setting": "[6]; 3.0 mg/kg P.O. single dose", "value": "3 (≥91% effective)"}, {"measurement": "Efficacy, Ostertagia circumcincta, Adult", "setting": "[6]; 6.0 mg/kg P.O. single dose", "value": "2 (76-90% effective)"}, {"measurement": "Efficacy, Cooperia oncophora", "setting": "[7]; 1.0 mg/kg P.O. single dose", "value": "3 (≥91% effective)"}, {"measurement": "Efficacy, Cooperia oncophora", "setting": "[7]; 3.0 mg/kg P.O. single dose", "value": "3 (≥91% effective)"}, {"measurement": "Efficacy, Cooperia oncophora", "setting": "[7]; 6.0 mg/kg P.O. single dose", "value": "3 (≥91% effective)"}, {"measurement": "Efficacy, Trichostrongylus colubriformis", "setting": "[8]; 1.0 mg/kg P.O. single dose", "value": "3 (≥91% effective)"}, {"measurement": "Efficacy, Trichostrongylus colubriformis", "setting": "[8]; 3.0 mg/kg P.O. single dose", "value": "3 (≥91% effective)"}, {"measurement": "Efficacy, Trichostrongylus colubriformis", "setting": "[8]; 6.0 mg/kg P.O. single dose", "value": "3 (≥91% effective)"}, {"measurement": "Efficacy, Cooperia curticei", "setting": "[9]; 1.0 mg/kg P.O. single dose", "value": "3 (≥91% effective)"}, {"measurement": "Efficacy, Cooperia curticei", "setting": "[9]; 3.0 mg/kg P.O. single dose", "value": "3 (≥91% effective)"}, {"measurement": "Efficacy, Cooperia curticei", "setting": "[9]; 6.0 mg/kg P.O. single dose", "value": "3 (≥91% effective)"}, {"measurement": "Efficacy, Haemonchus contortus", "setting": "[10]; 1.0 mg/kg P.O. single dose", "value": "3 (≥91% effective)"}, {"measurement": "Efficacy, Haemonchus contortus", "setting": "[10]; 3.0 mg/kg P.O. single dose", "value": "3 (≥91% effective)"}, {"measurement": "Efficacy, Haemonchus contortus", "setting": "[10]; 6.0 mg/kg P.O. single dose", "value": "3 (≥91% effective)"}, {"measurement": "fecal worm egg counts", "setting": "[11]", "value": "barely detectable or undetectable level"}]}]}
